Experimental data as given in patent US20220213030A1, “AMINOGUANIDINE HYDRAZONES AS RETROMER STABILIZERS USEFUL FOR TREATING NEUROLOGICAL DISEASES” (OSPEDALE SAN RAFFAELE SRL, priority 2019, published 2022).
“Also recorded” adds a separate entry of the source.

What was measured:
[1] = tested on: Vps35, Vps26 and Vps29 mRNA; test: Real time PCR of CRC genes in Neuro2a; format: cell-based, mouse; details: 10 μM, 48 hours
Description: Compound 2a increases the stability of the retromer complex in vitro. We further validated this concept by measuring VPS35 degradation rates by a cycloheximide (CHX) chase assay. Neuro2a cells received vehicle or lead 2a (10 μM) for 24 hours, then CHX was added to the medium, and VPS35 levels were measured by western blot. […] As is the case with R55 (Mecozzi, Berman et al. 2014), compound 2a should not influence the transcription levels of CRC genes in Neuro2a cells.
Lumbar spinal tracts dissected from saline perfused mice or Neuro2a cells were lysed to extract total RNAs using the RNeasy Mini Kit (Qiagen) according to the manufacturer's recommendations, including DNase (Promega) digestion. We synthetized the cDNA using ThermoScript RT-PCR System (Invitrogen) and Random Hexamer (Invitrogen), according to the manufacturer's instructions. The LightCycler 480 System (Roche) and LightCycler 480 SYBR Green I Master Mix (Roche) were used for real-time PCR experiments. Normalization was obtained using the housekeeping gene Histone H3
(H3 F: 5′-[…]-3′ H3 R: 5′-[…]-3′). The following specific primers were used for gene expression analysis: […]

[2] = tested on: VPS26b; test: VPS26b western blot in spinal cord extracts of G93A mice; format: in vivo, mouse; details: 10 mg/kg, day 100
Description: Lumbar spinal cords were dissected from saline perfused mice and rapidly homogenized in the following lysis buffer: Tris-HCl 10 mM pH 8, EDTA pH 8 1 mM, NaCl 100 mM, NP40 1% and protease inhibitor cocktail (Sigma). Protein extracts were obtained using a tight-fitting glass Potter tissue grinder (1 ml; Wheaton) and then sonicated at a frequency of 20 kHz (10 times-1s). Protein lysates from cells cultures were obtained from plates receiving PBS1× washing and subsequently the lysis buffer followed by sonication. Protein concentrations were measured by BCA protein assay kit (Thermofisher) according to the manufacturer's recommendations. Ten μg of protein extract was loaded on 10% Mini-PROTEAN TGX Stain-Free precast gels for PAGE (Bio-Rad). Gel electrophoresis was performed at 100 V for 2 hours. Gels were transferred on Immobilon®-P PVDF membrane according to the manufacturer's instructions (Millipore). Blots were blocked in 5% BSA in Tris buffered saline plus 0.1% Tween-20 (TBS-T) for 1 hour before receiving primary antibodies: goat α-VPS35 1:800 (ab10099, Abcam); rabbit α-VPS26b 1:1000 (15915-1-AP, ProteinTech); rabbit α-VPS29 1:1000 (ab236796 Abcam); mouse α-βActin 1:25000 (Sigma); mouse α-Golgin97 1:1000 (Invitrogen); mouse α-Ubiquitin 1:500 (Merk) overnight at 4° C. on shaker. […] Quantifications were done using the Image Lab 6.0.1 software (Bio-Rad).

[3] = tested on: TNFα; test: LPS-mediated TNFα release in Raw 264.7 cells (ELISA); format: cell-based, murine; details: 10 μM for 1 hour, then LPS 100 ng/ml, 4 hours
Description: We observed that the molecular structure featuring compound 2a is reminiscent of the patented compound CNI-1493 (N,N′-bis [3,5 -bis [1(aminoiminomethyl) hydrazono]ethyl]phenyl]decanediamide tetrahydrochloride (CAS Reg. No. 164301-51-3)), (FIG. 16A). CNI-1493 inhibits macrophage activation in the animal model of Multiple Sclerosis producing a general amelioration of clinical and pathological outcomes of these mice (Martiney, Rajan et al. 1998). […] CNI-1493 suppresses the production of pro-inflammatory cytokines, belonging to the plethora of detrimental signals that accompany neurodegenerative processes in several disorders. […] We followed experimental procedures published by Bianchi and colleagues that describe the ability of CNI-1493 to blunt the production of this cytokine (Bianchi, Bloom et al. 1996). Cells were incubated with CNI-1493 (10 μM) or with compound 2a (10 μM) for 1 hour and then we added the LPS (100 ng/ml) to media. We next collected supernatants (4 hours after the LPS stimulation) form cells for the evaluation of TNFα levels.
Raw 264.7 cells (10^5/well) were treated with compound 2a, CNI-1493 or vehicle for 1 hour then we applied LPS (100 ng/ml) and supernatants were collected after 4 hours. […] Concentrations of TNFα were calculated according to a standard curve and expressed as nanograms per […]. […]

[4] = molecular target: VPS35 (Mus musculus, UniProt Q9EQH3+Q9QZ88); test: VPS35 levels in spinal cord extracts of C57BL6J mice by western blot; format: in vivo; parameters: Lumbar spinal cords were dissected from saline perfused mice and rapidly homogenized; from tissue; host or cells: lumbar spinal cord of mice; details: 10 mg/kg daily intraperitoneal for 7 days
Description: We next asked whether the compound 2a can cross the blood brain barrier (BBB) of the brain. We run a pharmacokinetic assay on C57BL6J mice that received daily intraperitoneal injections of compound 2a (10 mg/Kg/day). Mice were sacrificed after 1, 7, 15 and 30 days saline perfused to avoid the CNS contamination of compounds contained in blood circulation and brains used for the determination of compound 2a levels by mass spectrometry. […] We next investigated in vivo if the retromer stabilization occurs in response to Compound 2a treatment. We intraperitoneally injected R55 and Compound 2a in adult C57BL6J mice as above described. After one week, mice were sacrificed, proteins extracts were assayed by western blot.
Lumbar spinal cords were dissected from saline perfused mice and rapidly homogenized in the following lysis buffer: Tris-HCl 10 mM pH 8, EDTA pH 8 1 mM, NaCl 100 mM, NP40 1% and protease inhibitor cocktail (Sigma). Protein extracts were obtained using a tight-fitting glass Potter tissue grinder (1 ml; Wheaton) and then sonicated at a frequency of 20 kHz (10 times-1s). […] Protein concentrations were measured by BCA protein assay kit (Thermofisher) according to the manufacturer's recommendations. […] Quantifications were done using the Image Lab 6.0.1 software (Bio-Rad).

N=C(N)NN=Cc1cccc(C=NNC(=N)N)c1 [Compound 2a, 1,3-Bis-amino guanidine phenyl hydrazone]
mRNAs levels of Vps35, Vps26 and Vps29 [1]: did not change
VPS26b levels in SC extracts (WB) [2]: increase VPS35 and VPS26b levels
TNFα levels in supernatants [3]: did not show any reduction of TNFα; also recorded: did not inhibit TNFα release
VPS35 levels in SC extracts (ratio versus vehicle-treated mice) [4]: ≈ 1.7
